Source: US20110313156A1 (BOEHRINGER INGELHEIM INTERNATIONAL GMBH, priority 2008, published 2011)

Target: T1, His6-PDK1 (aa 52-556) (Homo sapiens, UniProt O15530)
T1 construct: 15 μL His6-PDK1 (aa 52-556) 3.33 ng/well); host or cells: baculovirus-infected insect cells
T1 sequence (O15530 52-556): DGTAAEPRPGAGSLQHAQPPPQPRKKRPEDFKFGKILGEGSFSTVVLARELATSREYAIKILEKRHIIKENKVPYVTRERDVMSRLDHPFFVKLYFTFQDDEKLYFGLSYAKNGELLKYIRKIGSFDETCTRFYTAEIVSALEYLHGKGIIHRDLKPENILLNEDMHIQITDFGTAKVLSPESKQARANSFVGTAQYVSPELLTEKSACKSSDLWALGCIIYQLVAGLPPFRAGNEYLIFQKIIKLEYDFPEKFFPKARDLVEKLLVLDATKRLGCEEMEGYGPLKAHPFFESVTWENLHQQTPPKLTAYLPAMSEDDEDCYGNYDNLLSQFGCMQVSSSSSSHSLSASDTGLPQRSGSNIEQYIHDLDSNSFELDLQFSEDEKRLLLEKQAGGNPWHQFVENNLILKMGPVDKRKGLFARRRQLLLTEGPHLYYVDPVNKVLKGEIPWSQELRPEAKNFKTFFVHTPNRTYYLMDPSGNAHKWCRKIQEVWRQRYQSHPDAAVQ
Test: PDK1 kinase assay III (with Tween 20)
Assay type: biochemical
Details: compound at 10 μM; PDK1 kinase assay III (values without asterisk); read-out: % CTL (residual activity of the enzyme relative to DMSO control)
Experimental: Purified enzyme may be obtained for example from the University of Dundee, Scotland.
Another PDK1 assay was developed which by comparison with PDK1 assay 1 additionally contains Tween 20:
The final concentration of Tween 20 is 0.005%.
The reaction is started by adding the ATP solution and the mixture is incubated for 90 min at ambient temperature; at the start of the reaction the dishes are shaken gently. The reaction is stopped by the addition of 50 μL/well of 500 mM phosphoric acid (H3PO4) and incubated for about 20 min at ambient temperature. […] The measured data are evaluated using Graphpad Prism software.
The % CTL values indicate the residual activity of the enzyme after the addition of the inhibitory compound in the solvent DMSO in relation to the enzyme activity in the solvent DMSO without the addition of a compound (control). The majority of the values were determined using the PDK1 kinase assay III described hereinbefore. The values marked with an asterisk (* or**) were determined using the PDK1 kinase assay II described hereinbefore (one asterisk→incubation for 24 h; two asterisks→incubation for 5 min)

Compound	remaining activity at 10 µM [%]
COCCN(C)C(=O)c1ccc(Nc2ncc3cc(C#CCNC(=O)c4cncn(Cc5ccc(F)c(F)c5)c4=O)ccc3n2)cc1	12.2
Cc1c(C(=O)NCC#Cc2ccc3nc(Nc4ccc(C(=O)NC5CCN(C)CC5)c(Cl)c4)ncc3c2)c(=O)n(Cc2ccc(F)c(F)c2)n1C	16.1
COc1cc(Nc2ncc3cc(C#CCNC(=O)c4c(C)n(C)n(Cc5ccc(F)c(F)c5)c4=O)ccc3n2)ccc1C(=O)NC1CCN(C)CC1	15
Cc1c(C(=O)NCC#Cc2ccc3nc(Nc4ccc(C(=O)NC5CCN(C)CC5)c(F)c4)ncc3c2)c(=O)n(Cc2ccc(F)c(F)c2)n1C	11
Cc1c(C#CCNC(=O)c2c(C)n(C)n(Cc3ccc(F)c(F)c3)c2=O)ccc2nc(Nc3ccccc3)ncc12	12.4
Cc1c(C(=O)NCC#Cc2ccc3nc(NC(C)C)ncc3c2)c(=O)n(Cc2ccc(F)c(F)c2)n1C	24.4
Cc1c(C(=O)NCC#Cc2ccc3nc(NC4CCOCC4)ncc3c2)c(=O)n(Cc2ccc(F)c(F)c2)n1C	25
Cc1c(C(=O)NCC#Cc2ccc3nc(NC4CCC4)ncc3c2)c(=O)n(Cc2ccc(F)c(F)c2)n1C	12.3
CCNc1ncc2cc(C#CCNC(=O)c3cncn(Cc4ccc(F)c(F)c4)c3=O)ccc2n1	17.6
CNc1ncc2cc(C#CCNC(=O)c3c(C)n(C)n(Cc4ccc(F)c(F)c4)c3=O)ccc2n1	14.9
CC1CCC(NC(=O)c2ccc(Nc3ncc4cc(C#CCNC(=O)c5cncn(Cc6ccc(F)c(F)c6)c5=O)ccc4n3)cc2)CC1 (stereo not drawn)	19.7
CN(C)CCNC(=O)c1ccc(Nc2ncc3cc(C#CCNC(=O)c4cncn(Cc5ccc(F)c(F)c5)c4=O)ccc3n2)cc1	18.5
CN(C)CCCNC(=O)c1ccc(Nc2ncc3cc(C#CCNC(=O)c4cncn(Cc5ccc(F)c(F)c5)c4=O)ccc3n2)cc1	18.3
CCNc1ncc2cc(/C=C/CNC(=O)c3cncn(Cc4ccc(F)c(F)c4)c3=O)ccc2n1	23.5
O=C(NC/C=C/c1ccc2nc(NC3CC3)ncc2c1)c1cncn(Cc2ccc(F)c(F)c2)c1=O	17
COc1ccc(Nc2ncc3cc(/C=C/CNC(=O)c4cncn(Cc5ccc(F)c(F)c5)c4=O)ccc3n2)cc1	13.8
COC(=O)c1ccc(Nc2ncc3cc(/C=C/CNC(=O)c4cncn(Cc5ccc(F)c(F)c5)c4=O)ccc3n2)cc1Cl	22.5
Cc1c(C(=O)NC/C=C/c2ccc3nc(N)ncc3c2)c(=O)n(Cc2ccc(F)c(F)c2)n1C	23
CNc1ncc2cc(/C=C/CNC(=O)c3cncn(Cc4ccc(F)c(F)c4)c3=O)ccc2n1	21.7
Cc1ncc(C(=O)NC/C=C/c2ccc3nc(Nc4ccc(CN(C)C)cc4)ncc3c2)c(=O)n1Cc1ccc(F)c(F)c1	13.8

Compound	remaining activity at 10 µM [%]
COC(=O)c1ccc(Nc2ncc3cc(/C=C/CNC(=O)c4c(C)n(C)n(Cc5ccc(F)c(F)c5)c4=O)ccc3n2)cc1	20.7
Cc1c(C(=O)NC/C=C/c2ccc3nc(Nc4ccc(C(=O)N(C)C5CCN(C)CC5)c(F)c4)ncc3c2)c(=O)n(Cc2ccc(F)c(F)c2)n1C	13.7
Cc1c(C(=O)NC/C=C/c2ccc3nc(Nc4ccc(C(=O)NC5CCN(C)CC5)c(F)c4)ncc3c2)c(=O)n(Cc2ccc(F)c(F)c2)n1C	18.1
COc1cc(Nc2ncc3cc(/C=C/CNC(=O)c4cncn(Cc5ccc(F)c(F)c5)c4=O)ccc3n2)ccc1C(=O)NC1CCN(C)CC1	29
COc1cc(Nc2ncc3cc(/C=C/CNC(=O)c4c(C)n(C)n(Cc5ccc(F)c(F)c5)c4=O)ccc3n2)ccc1C(=O)NC1CCN(C)CC1	10.2
CN1CCC(NC(=O)c2ccc(Nc3ncc4cc(/C=C/CNC(=O)c5cncn(Cc6ccc(F)c(F)c6)c5=O)ccc4n3)cc2Cl)CC1	22.4
Cc1c(C(=O)NC/C=C/c2ccc3nc(Nc4ccc(C(=O)NC5CCN(C)CC5)c(Cl)c4)ncc3c2)c(=O)n(Cc2ccc(F)c(F)c2)n1C	14.4
CN1CCC(NC(=O)c2ccc(Nc3ncc4cc(/C=C/CNC(=O)c5cncn(Cc6ccc(F)c(F)c6)c5=O)ccc4n3)cc2F)CC1	19.7
CNC(=O)c1ccc(Nc2ncc3cc(/C=C/CNC(=O)c4cncn(Cc5ccc(F)c(F)c5)c4=O)ccc3n2)cc1Cl	14.1
CNC(=O)c1ccc(Nc2ncc3cc(/C=C/CNC(=O)c4c(C)n(C)n(Cc5ccc(F)c(F)c5)c4=O)ccc3n2)cc1Cl	18.6
Cc1c(C(=O)NC/C=C/c2ccc3nc(Nc4ccc(C(=O)N(C)C5CCN(C)CC5)c(Cl)c4)ncc3c2)c(=O)n(Cc2ccc(F)c(F)c2)n1C	15.8
CNc1ncc2cc(/C=C/CNC(=O)c3c(C)n(C)n(Cc4ccc(F)c(F)c4)c3=O)ccc2n1	16.1
O=C(NC/C=C/c1ccc2nc(Nc3ccccn3)ncc2c1)c1cncn(Cc2ccc(F)c(F)c2)c1=O	18.4
Cc1c(C(=O)NC/C=C/c2ccc3nc(Nc4ccccn4)ncc3c2)c(=O)n(Cc2ccc(F)c(F)c2)n1C	22.7
O=C(NC/C=C/c1ccc2nc(Nc3ccncc3)ncc2c1)c1cncn(Cc2ccc(F)c(F)c2)c1=O	12.1
COC(=O)c1ccc(Nc2ncc3cc(/C=C/CNC(=O)c4cncn(Cc5ccc(F)c(F)c5)c4=O)ccc3n2)cc1OC	38.2
COC(=O)c1ccc(Nc2ncc3cc(/C=C/CNC(=O)c4c(C)n(C)n(Cc5ccc(F)c(F)c5)c4=O)ccc3n2)cc1OC	13.6
Cc1c(C(=O)NC/C=C/c2ccc3nc(Nc4ccc(C(=O)O)cc4)ncc3c2)c(=O)n(Cc2ccc(F)c(F)c2)n1C	12.9
CN1CCC(N(C)c2ccc(Nc3ncc4cc(/C=C/CNC(=O)c5nc(Cl)cn(Cc6ccc(F)c(F)c6)c5=O)ccc4n3)cc2)CC1	12.6

Other lines, results leading:

remaining activity at 10 µM [%]	Compound
11.6	Cc1c(C(=O)NCC#Cc2ccc3nc(Nc4ccc(C(=O)NC5CCN(C)CC5)cc4)ncc3c2)c(=O)n(Cc2ccc(F)c(F)c2)n1C
14.3	Cc1c(C(=O)NCC#Cc2ccc3nc(Nc4ccc(N(C)C)cc4)ncc3c2)c(=O)n(Cc2ccc(F)c(F)c2)n1C
14.7	COc1ccc(Nc2ncc3cc(C#CCNC(=O)c4c(C)n(C)n(Cc5ccc(F)c(F)c5)c4=O)ccc3n2)cc1
12.4	Cc1c(C(=O)NCC#Cc2ccc3nc(Nc4ccc(C(=O)N(C)C5CCN(C)CC5)cc4)ncc3c2)c(=O)n(Cc2ccc(F)c(F)c2)n1C
13.7	CCN1CCC(NC(=O)c2ccc(Nc3ncc4cc(C#CCNC(=O)c5c(C)n(C)n(Cc6ccc(F)c(F)c6)c5=O)ccc4n3)cc2)CC1
11.6	Cc1c(C(=O)NCC#Cc2ccc3nc(Nc4ccc(C(=O)NC5CCN(C6CC6)CC5)cc4)ncc3c2)c(=O)n(Cc2ccc(F)c(F)c2)n1C
17.2	COCCN(C)C(=O)c1ccc(Nc2ncc3cc(C#CCNC(=O)c4c(C)n(C)n(Cc5ccc(F)c(F)c5)c4=O)ccc3n2)cc1
20.1	COCCNC(=O)c1ccc(Nc2ncc3cc(C#CCNC(=O)c4c(C)n(C)n(Cc5ccc(F)c(F)c5)c4=O)ccc3n2)cc1
17.1	Cc1c(C(=O)NCC#Cc2ccc3nc(Nc4ccccc4F)ncc3c2)c(=O)n(Cc2ccc(F)c(F)c2)n1C
20.8	Cc1c(C(=O)NCC#Cc2ccc3nc(Nc4ccc(C(=O)NC5CCC(C)CC5)cc4)ncc3c2)c(=O)n(Cc2ccc(F)c(F)c2)n1C (stereo not drawn)
10.8	Cc1c(C(=O)NCC#Cc2ccc3nc(Nc4ccc(C(=O)NCCN(C)C)cc4)ncc3c2)c(=O)n(Cc2ccc(F)c(F)c2)n1C
13.1	Cc1c(C(=O)NCC#Cc2ccc3nc(Nc4ccc(C(=O)NCCCN(C)C)cc4)ncc3c2)c(=O)n(Cc2ccc(F)c(F)c2)n1C
14.4	Cc1c(C(=O)NCC#Cc2ccc3nc(Nc4ccc(C(=O)N(C)CCO)cc4)ncc3c2)c(=O)n(Cc2ccc(F)c(F)c2)n1C
12.1	COCCCNC(=O)c1ccc(Nc2ncc3cc(C#CCNC(=O)c4c(C)n(C)n(Cc5ccc(F)c(F)c5)c4=O)ccc3n2)cc1
15.2	Cc1c(C(=O)NCC#Cc2ccc3nc(Nc4ccc(C(=O)NCCCO)cc4)ncc3c2)c(=O)n(Cc2ccc(F)c(F)c2)n1C
16	COCCCN(C)C(=O)c1ccc(Nc2ncc3cc(C#CCNC(=O)c4c(C)n(C)n(Cc5ccc(F)c(F)c5)c4=O)ccc3n2)cc1
23.2	Cc1c(C(=O)NCC#Cc2ccc3nc(Nc4ccc(C(=O)N(C)CCCO)cc4)ncc3c2)c(=O)n(Cc2ccc(F)c(F)c2)n1C
16.9	Cc1c(C(=O)NC/C=C/c2ccc3nc(Nc4ccc(C(=O)NCCCN(C)C)cc4)ncc3c2)c(=O)n(Cc2ccc(F)c(F)c2)n1C
